Read-outs that look alike come from different tables or passages of the source.
How the values were obtained:
[1] = set-up: species or system beagle dogs; settings: male, beagle, dog, in vivo
Description: Two groups of three male beagle dogs weighing 9.0-10.7 kg and aged 8-30 months were fasted overnight before being administered the test article, MGBG, as either a single bolus intravenous dose of 1 mg/kg (Group 1) or as a single oral gavage dose of 10 mg/kg (Group 2). Dose formulation analysis verified administered dose solutions as within 17% of targeted concentrations of 1 and 10 mg/kg for Groups 1 and 2, respectively.
Blood samples (approximately 2.0 mL) were collected for plasma MGBG concentration measurement from all intravenously dosed animals prior to dosing and at approximately T=0.083 (5 min), 0.25 (15 min), 0.5 (30 min), 1, 2, 4, 8, and 24 hours after dosing. A similar procedure was used with orally dosed animals was used, except that collection took place at T=1, 2, 4, 8, 12, 24, and 36 hours after dosing. The samples were centrifuged under refrigerated conditions following completion of sample collection at each interval. The resulting plasma was separated and stored frozen at approximately −70° C. until analysis.

in vivo = experiment: in vivo; set-up: species or system Sprague Dawley rats; settings: rat
Description: Eighteen male Sprague Dawley rats (Charles River) weighing 217-263 g and aged 8-9 weeks were administered the test article, MGBG as either a single bolus intravenous dose of 1 mg/kg (Group 1) or as a single oral gavage dose of 10 mg/kg. A cohort of three animals was sacrificed via CO2 inhalation anesthesia after final blood collection at each of T=2, 4, 12, 24, 36, and 48 hours post-dose. Dose formulation analysis verified administered dose solutions as within 17% of targeted concentration of 10 mg/kg.
Analysis was performed by LC/MS/MS. Pharmacokinetic analyses were performed on the mean MGBG plasma concentration versus time data using the non-compartmental approach (linear trapezoidal rule for AUC calculations). The WinNonlin sparse sampling tool was used for PK calculations. All samples reported as BLQ (Below the Limit of Quantitation, in plasma 2.50 ng/mL) were changed to 0.00 ng/mL for the purpose of analysis.
Additionally, in rats dosed as above with single oral administration of MGBG at 10 mg/kg, immediately following the plasma sample collection for each cohort (i.e., 2, 4, 12, 24, 36, and 48 hours after dosing), three rats were sacrificed, and spleen and liver tissues collected and flask frozen. […] This is consistent with a selective uptake mechanism for MGBG. Without wishing to be bound by theory, other SAMDC inhibitors which are selectively uptaken by cells may, like MGBG, be useful in the methods and compositions disclosed herein.

[2] = set-up: species or system DBA/1 mice; settings: male, DBA/1, mouse, in vivo
Description: Twenty-four male DBA/1 mice weighing 19.5-24.7 g and aged 7-9 weeks administered the test article, MGBG, as either a single bolus intravenous dose via a lateral tail vein of 1 mg/kg (Group 1, n=12) or as a single oral gavage dose of 10 mg/kg (Group 2, n=12). Each dose group consisted of 4 cohorts of 3 animals each. Group 1 was sampled at 5, 15, and 30 minutes after dosing; and 1, 2, 4, 8, and 24 hours after dosing. Group 2 was sampled at 1, 2, 4, 8, 12, 24, and 36 hours after dosing. Starting with the first time point, a new cohort was sampled at each successive time point up to the 1-hour (Group 1) or […] (Group 2) time point. The order of sampling among the cohorts was repeated for the subsequent time points (some cohorts may have been bled only once). The second bleed for each cohort was terminal. Animals were sacrificed via CO2 inhalation anesthesia after final blood collection.
The samples were centrifuged under refrigerated conditions following completion of sample collection at each interval. The resulting plasma was separated and stored frozen at approximately −70° C. until analysis. Analysis was performed by LC/MS/MS. Pharmacokinetic analyses were performed on the mean MGBG plasma concentration versus time data using the non-compartmental approach (linear trapezoidal rule for AUC calculations). The WinNonlin sparse sampling tool was used for PK calculations.
The second method used to convert the efficacious 60 mg/kg/day dose in mice to an equivalent dose in humans was based more directly on allometric scaling. Data from an MGBG pharmacokinetic study consisting of a 10 mg/kg oral dose in mice was modeled in a simulation to determine the theoretical AUCINF value for a dosing regimen of 30 mg/kg PO BID, which was 9050 h*ng/mL. Next, predicted human clearance values as determined by single- and multi-species allometric scaling were used to estimate doses likely to produce an exposure in humans (AUCINF) similar to that of the 60 mg/kg/day in mice. […] Using multi-species allometric scaling, the predicted human equivalent dose is about 4.2 mg/kg/day.

[3] = male, Sprague Dawley, iv, 1 mg/kg
[4] = male, Sprague Dawley, po, 10 mg/kg

Structure (SMILES): CC(/C=N/NC(=N)N)=N\NC(=N)N [MGBG, 1,1′ [methylethanediylidene]dinitrilodiguanidine]
- Clobs ([1]; iv, 1 mg/kg): 13.7 mL/min/kg
- VSSobs ([1]; iv, 1 mg/kg): 14.6 L/kg
- Clobs ([1]; po, 10 mg/kg): 8.29 mL/min/kg
- Vd ([1]; po, 10 mg/kg): 14.6 L/kg
- Clobs (in vivo; [3]): 13.4 mL/min/kg
- VSSobs (in vivo; [3]): 15.4 L/kg
- Clobs (in vivo; [4]): 3.18 mL/min/kg
- Vd (in vivo; [4]): 15.4 L/kg
- time point through which MGBG levels were measurable in plasma (in vivo; [4]): 12 h
- Kp (in vivo; male, Sprague Dawley, po, 10 mg/kg, greater exposure (AUCall) of liver tissue compared to plasma): 160
- Kp (in vivo; male, Sprague Dawley, po, 10 mg/kg, greater exposure (AUCall) of spleen tissue compared to plasma): 9.3
- Kp (in vivo; male, Sprague Dawley, po, 10 mg/kg, greater exposure (Cmax) of liver tissue compared to plasma): 120
- Kp (in vivo; male, Sprague Dawley, po, 10 mg/kg, greater exposure (Cmax) of spleen tissue compared to plasma): 4
- clinical findings after dosing (in vivo): Abnormal clinical findings were not noted
- Clobs ([2]; iv, 1 mg/kg): 49.6 mL/min/kg
- VSSobs ([2]; iv, 1 mg/kg): 38.3 L/kg
- Clobs ([2]; po, 10 mg/kg): 6.68 mL/min/kg
- Vd ([2]; po, 10 mg/kg): 38.3 L/kg
